Measurements taken from patent publication US20120004282A1, “RNA Interference Mediated Inhibition of the Intercellular Adhesion Molecule 1 (ICAM-1) Gene Expression Using Short Interfering Nucleic Acid (siNA)” (Merck Sharp & Dohme Corp,, priority 2009, published 2012).
[invAb] = inverted abasic unit; d = 2'-deoxy (DNA); m = 2'-O-methyl; r = 2'-OH (RNA); f = 2'-fluoro

test system: ICAM-1 mRNA; experiment: ICAM-1 mRNA knock-down in transfected Calu-1 cells (Taqman RT-PCR); assay type: cell-based, human; conditions: Calu-1 cells, 10 nM siNA, 24 hrs post-transfection, mean ± S.D., relative to non-targeting control
Protocol: Calu-1 (human; ATCC cat# HTB-54): Cells were cultured at 37° C. in the presence of 5% CO2 and grown in McCoy's 5a medium supplemented with fetal bovine serum at a final concentration of 10% and 100 μg/mL of streptomycin and 100 U/mL penicillin.
All transfections were performed using RNAiMax (Invitrogen Cat# 13778-150) as per the manufacturer's instructions.
Calu-1 cells were plated in all wells of a tissue-culture treated, 96-well plate at final counts of 5,000 cells/well in 100 μL of appropriate culture media. Cells were cultured for 24 hours after plating at 37° C. in the presence of 5% CO2.
After 24 hours, complexes containing siNA and RNAiMax were created as follows. A solution of RNAiMax diluted 33-fold in OPTI-MEM was prepared. In parallel, solutions of the siNAs for testing were prepared to a final concentration of 120 nM in OPTI-MEM. After incubation of RNAiMax/OPTI-MEM solution at room temperature for 5 min, an equal volume of the siNA solution and the RNAiMax solution were added together for each of the siNAs. […] This solution was incubated at room temperature for 20 minutes. After incubation, 20 uL of the solution was added to each of the relevant wells. The final concentration of siNA in each well was 10 nM and the final volume of RNAiMax in each well was 0.3 uL.
The time of incubation with the RNAiMax-siNA complexes was 24 hours, unless otherwise indicated. There was no change in media between the transfection and harvesting of the cells unless otherwise indicated.
Dose response curves were carried out in a similar fashion in 96-well plates, while maintaining a constant amount of RNAiMax in each transfection.
RNA was extracted from a 96-well plate using the TaqMan® Gene Expression Cells-to-CT™ Kit (Cat# 4399002) with a modified protocol. Briefly, a 60 uL (1 plate) or 110 uL (2 plates) of the Lysis Solution with DNase I was dispensed into each well of the Lysis Buffer Plate (twin.tec full skirt plate). The lysis buffer and stop plates were stored at 4° C. until the cells were washed.
The plate was spun at 1100 rpm for 5 minutes. The culture medium was aspirated and discarded from the wells of the culture plate. The lysis was performed automatically using a BioMek FX instrument and method. After the Biomek method was completed, the lysis plate was incubated for 2 min. at room temperature. The lysis plate can be stored for 2 hours at 4° C., or at −20° C. or −80° C. for two months.
Each well of the reverse transcription plate required 10 uL of 2× reverse transcriptase Buffer, 1 uL of 20× reverse transcription enzyme and 2 uL of nuclease-free water. The reverse transcription master mix was prepared by mixing 2× reverse transcription buffer, 20× reverse transcription enzyme mix, and nuclease-free water. 13 uL of the reverse transcription master mix was dispensed into each well of the reverse transcription plate (semi-skirted). A separate reverse transcription plate was prepared for each cell plate. The plate was loaded onto a Biomek NX or Biomek FX Dual-96 and the Biomek method was run. The program is programmed to automatically added 7 uL of lysate from the cell lysis procedure described above into each well of the reverse transcription plate. The plate is sealed and spun on a centrifuge (1000 rpm for 30 seconds) to settle the contents to the bottom of the reverse transcription plate. The plate is placed in a thermocycler at 37° C. for 60 min, 95° C. for 5 min, and 4° C. until the plate is removed from the thermocycler. Upon removal, if not used immediately, the plate was frozen at −20° C.
A series of probes and primers were used to detect the various mRNA transcripts of the genes of ICAM-1 and ICAM-2 in human cell lines (see Table 2). All the Taqman probes and primers for the experiments here-in described were supplied as pre-validated sets by Applied Biosystems, Inc., (see Table 2). The assays were performed on an ABI 7900 instrument, according to the manufacturer's instructions. […]

| Substance | % KD Human |
| --- | --- |
| 29283-DC: siNA duplex, ICAM-1 target site 1811 (h); sense B cucAGcAcGuAccucuAuA TTB; antisense UAUAGAGGuAcGuGcuGAGUU (sense CUCAGCACGUACCUCUAUATT; antisense UAUAGAGGUACGUGCUGAGUU; sense: DNA at AGT, 2'-fluoro at CU, [invAb] at 5' end, 3' end, backbone not given here; antisense: sugars from the 5' end rrrmmmmmfmfmfmffmmmmm, backbone not given here) | 63 ± 8% |
| 48715-DC: siNA duplex, ICAM-1 target site 1828 (m); sense B AcuuGuAGccucAGAGcuA TTB; antisense UAGcucuGAGGcuAcAAGuUU (sense ACUUGUAGCCUCAGAGCUATT; antisense UAGCUCUGAGGCUACAAGUUU; sense: DNA at AGT, 2'-fluoro at CU, [invAb] at 5' end, 3' end, backbone not given here; antisense: sugars from the 5' end rrrffffmmmmffmfmmmfmm, backbone not given here) | 14 ± 12% |
| 48699-DC: siNA duplex, ICAM-1 target site 668 (m); sense B GcuGGcAuuGuucucuAAu TTB; antisense AUUAGAGAAcAAuGccAGcUU (sense GCUGGCAUUGUUCUCUAAUTT; antisense AUUAGAGAACAAUGCCAGCUU; sense: DNA at AGT, 2'-fluoro at CU, [invAb] at 5' end, 3' end, backbone not given here; antisense: sugars from the 5' end rrrmmmmmmfmmfmffmmfmm, backbone not given here) | 25 ± 9% |
| 48701-DC: siNA duplex, ICAM-1 target site 1505 (m); sense B AGuAcuGuAccAcucucAA TTB; antisense UUGAGAGuGGuAcAGuAcuUU (sense AGUACUGUACCACUCUCAATT; antisense UUGAGAGUGGUACAGUACUUU; sense: DNA at AGT, 2'-fluoro at CU, [invAb] at 5' end, 3' end, backbone not given here; antisense: sugars from the 5' end rrrmmmmfmmfmfmmfmffmm, backbone not given here) | 3 ± 17% |
| 48704-DC: siNA duplex, ICAM-1 target site 395 (m); sense B cGuGuAuucGuuuccGGAG TTB; antisense CUCcGGAAAcGAAuAcAcGUU (sense CGUGUAUUCGUUUCCGGAGTT; antisense CUCCGGAAACGAAUACACGUU; sense: DNA at AGT, 2'-fluoro at CU, [invAb] at 5' end, 3' end, backbone not given here; antisense: sugars from the 5' end rrrfmmmmmfmmmfmfmfmmm, backbone not given here) | 33 ± 22% |
| 48705-DC: siNA duplex, ICAM-1 target site 987 (m); sense B AGGAccuuAAcAGucuAcA TTB; antisense UGUAGAcuGuuAAGGuccuUU (sense AGGACCUUAACAGUCUACATT; antisense UGUAGACUGUUAAGGUCCUUU; sense: DNA at AGT, 2'-fluoro at CU, [invAb] at 5' end, 3' end, backbone not given here; antisense: sugars from the 5' end rrrmmmffmffmmmmffffmm, backbone not given here) | 5 ± 51% |
| 29281-DC: siNA duplex, ICAM-1 target site 1650 (h); sense B cAGuGAcuGucAcucGAGA TTB; antisense UCUcGAGuGAcAGucAcuGUU (sense CAGUGACUGUCACUCGAGATT; antisense UCUCGAGUGACAGUCACUGUU; sense: DNA at AGT, 2'-fluoro at CU, [invAb] at 5' end, 3' end, backbone not given here; antisense: sugars from the 5' end rrrfmmmfmmfmmffmffmmm, backbone not given here) | 45 ± 21% |
| 48711-DC: siNA duplex, ICAM-1 target site 1577 (m); sense B cGuGAuGGcAGccucuuAu TTB; antisense AUAAGAGGcuGccAucAcGUU (sense CGUGAUGGCAGCCUCUUAUTT; antisense AUAAGAGGCUGCCAUCACGUU; sense: DNA at AGT, 2'-fluoro at CU, [invAb] at 5' end, 3' end, backbone not given here; antisense: sugars from the 5' end rrrmmmmmffmffmffmfmmm, backbone not given here) | 42 ± 13% |
| 48718-DC: siNA duplex, ICAM-1 target site 1938 (h); sense B cucuuccucGGccuucccA TTB; antisense UGGGAAGGccGAGGAAGAGUU (sense CUCUUCCUCGGCCUUCCCATT; antisense UGGGAAGGCCGAGGAAGAGUU; sense: sugars from the 5' end f9 d2 f7 d3, [invAb] at 5' end, 3' end, backbone not given here; antisense: sugars from the 5' end r4 m4 f2 m11, backbone not given here) | 19 ± 11% |
| 48698-DC: siNA duplex, ICAM-1 target site 1611 (m); sense B AGAAAGAucAGGAuAuAcA TTB; antisense UGUAuAuccuGAucuuucuUU (sense AGAAAGAUCAGGAUAUACATT; antisense UGUAUAUCCUGAUCUUUCUUU; sense: DNA at AGT, 2'-fluoro at CU, [invAb] at 5' end, 3' end, backbone not given here; antisense: sugars from the 5' end rrrmfmffffmmfffffffmm, backbone not given here) | 34 ± 6% |
| 48720-DC: siNA duplex, ICAM-1 target site 1609 (h); sense B GuGucuAAAGGAuGGcAcu TTB; antisense AGUGccAuccuuuAGAcAcUU (sense GUGUCUAAAGGAUGGCACUTT; antisense AGUGCCAUCCUUUAGACACUU; sense: DNA at AGT, 2'-fluoro at CU, [invAb] at 5' end, 3' end, backbone not given here; antisense: sugars from the 5' end rrrmffmffffffmmmfmfmm, backbone not given here) | 48 ± 20% |
| 48708-DC: siNA duplex, ICAM-1 target site 1762 (m); sense B AcAGcAuuuAcccucAGcc TTB; antisense GGCuGAGGGuAAAuGcuGuUU (sense ACAGCAUUUACCCUCAGCCTT; antisense GGCUGAGGGUAAAUGCUGUUU; sense: DNA at AGT, 2'-fluoro at CU, [invAb] at 5' end, 3' end, backbone not given here; antisense: sugars from the 5' end rrrfmmmmmfmmmfmffmfmm, backbone not given here) | 22 ± 9% |
| 29290-DC: siNA duplex, ICAM-1 target site 1226 (h); sense B cAGAcAGuGAccAucuAcA TTB; antisense UGUAGAuGGucAcuGucuGUU (sense CAGACAGUGACCAUCUACATT; antisense UGUAGAUGGUCACUGUCUGUU; sense: DNA at AGT, 2'-fluoro at CU, [invAb] at 5' end, 3' end, backbone not given here; antisense: sugars from the 5' end rrrmmmfmmffmffmfffmmm, backbone not given here) | 47 ± 18% |
